In ChEMBL document CHEMBL1201862, “PubChem BioAssay data set” (2004):
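Grown in 96-well plates, cells were treated for 48 hours with each compound at five concentrations. Insufficient inhibition: endpoint recorded as highest concentration tested. GI50 is the concentration that inhibits growth by half.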 Calls of active or inactive are those of the source. Cut-off read from the data, not from the text of the source: active = GI50 up to about 1.1 µM and inactive = higher.

Experiments:
Test in all cases: growth of human tumour cells (NCI), 48 h
[1] = tested on: ACHN
[2] = tested on: DU-145
[3] = tested on: HCT-15
[4] = tested on: Hs-578T
[5] = tested on: LOX IMVI
[6] = tested on: M14
[7] = tested on: MDA-MB-435
[8] = tested on: MOLT-4
[9] = tested on: NCI-H226
[10] = tested on: NCI-H522
[11] = tested on: OVCAR-8
[12] = tested on: SF-268
[13] = tested on: SF-539
[14] = tested on: SN12C
[15] = tested on: SNB-75
[16] = tested on: UACC-62
[17] = tested on: UO-31
[18] = tested on: PC-3
[19] = tested on: SK-MEL-28

| Compound | GI50 [1] | GI50 [2] | GI50 [3] [µM] | GI50 [4] | GI50 [5] | GI50 [6] | GI50 [7] | GI50 [8] | GI50 [9] | GI50 [10] | GI50 [11] | GI50 [12] | GI50 [13] | GI50 [14] | GI50 [15] | GI50 [16] | GI50 [17] | GI50 [18] | GI50 [19] |
| --- | --- | --- | --- | --- | --- | --- | --- | --- | --- | --- | --- | --- | --- | --- | --- | --- | --- | --- | --- |
| O=c1[nH]c(=O)c2c([nH]1)[nH]c1ccccc12 | > 100 µM (inactive) | > 100 µM (inactive) | > 100 | > 100 µM (inactive) | > 100 µM (inactive) | > 100 µM (inactive) | > 100 µM (inactive) | > 100 µM (inactive) | > 100 µM (inactive) | > 100 µM (inactive) | > 100 µM (inactive) | > 100 µM (inactive) | > 100 µM (inactive) | > 100 µM (inactive) | > 100 µM (inactive) | > 100 µM (inactive) | > 100 µM (inactive) |  |  |
| COc1cc(/C=C/C2=NN(c3cccc(S(=O)(=O)O)c3)C3(C2)C(Cl)C(=O)N3c2nc3ccccc3s2)ccc1O (configuration not stated) | 16.7 µM (inactive) |  | 16.7 | 50 µM (inactive) | 11.4 µM (inactive) | 40.7 µM (inactive) | 17.1 µM (inactive) | 19.2 µM (inactive) | 20.7 µM (inactive) | 13.9 µM (inactive) | 18.3 µM (inactive) | 23.8 µM (inactive) | 21.4 µM (inactive) | 21.9 µM (inactive) | 21.7 µM (inactive) | 18.5 µM (inactive) | 16.9 µM (inactive) | 25.6 µM (inactive) | 25.1 µM (inactive) |
| C[N+](C)(CCNc1ccc(NCC[N+](C)(C)Cc2ccc([N+](=O)[O-])cc2)c2c1C(=O)c1c(O)ccc(O)c1C2=O)Cc1ccc([N+](=O)[O-])cc1 | > 50 µM (inactive) | 25.5 µM (inactive) | 35.8 | > 50 µM (inactive) | 4.65 µM (inactive) | > 50 µM (inactive) | > 50 µM (inactive) | > 5 µM (inactive) |  | > 50 µM (inactive) | > 50 µM (inactive) | > 50 µM (inactive) | 19.1 µM (inactive) | > 50 µM (inactive) | > 50 µM (inactive) | > 50 µM (inactive) | 20.4 µM (inactive) | 37.8 µM (inactive) | > 50 µM (inactive) |
| Cc1ccc(Nc2nc(-c3ccc(-c4ccc([N+](=O)[O-])cc4)o3)cs2)cc1 | 34 µM (inactive) |  | 15.7 |  | 33.8 µM (inactive) | > 100 µM (inactive) |  | 4.54 µM (inactive) | 48.3 µM (inactive) |  | 40.6 µM (inactive) | > 100 µM (inactive) | 93.8 µM (inactive) | 73.6 µM (inactive) | 50.5 µM (inactive) | 99.8 µM (inactive) | 8.51 µM (inactive) |  | 38 µM (inactive) |
| C[C@H](CS)C(=O)N1c2ccccc2C[C@H]1C(=O)O | > 100 µM (inactive) | > 100 µM (inactive) | > 100 | > 100 µM (inactive) |  |  |  | > 100 µM (inactive) | > 100 µM (inactive) | > 100 µM (inactive) | > 100 µM (inactive) | > 100 µM (inactive) | > 100 µM (inactive) | > 100 µM (inactive) | > 100 µM (inactive) | > 100 µM (inactive) | > 100 µM (inactive) | > 100 µM (inactive) | > 100 µM (inactive) |
| COC(=O)C(c1ccc(OC)cc1)N1C(=O)[C@@H](NC(=O)c2ccccc2)[C@H]1[C@@H](C)O (some centres not stated) | > 100 µM (inactive) |  | > 100 |  | > 100 µM (inactive) | > 100 µM (inactive) |  | > 100 µM (inactive) | > 100 µM (inactive) | > 100 µM (inactive) | > 100 µM (inactive) | > 100 µM (inactive) | > 100 µM (inactive) | > 100 µM (inactive) | > 100 µM (inactive) | > 100 µM (inactive) | > 100 µM (inactive) |  | > 100 µM (inactive) |
| COc1cccc(-n2c(N)c(-c3nc4cc(C(F)(F)F)ccc4s3)c3ccc([N+](=O)[O-])cc3c2=O)c1 | > 100 µM (inactive) | > 100 µM (inactive) | > 100 |  |  | > 100 µM (inactive) | > 100 µM (inactive) | > 100 µM (inactive) | > 100 µM (inactive) | > 100 µM (inactive) |  | > 100 µM (inactive) |  | > 100 µM (inactive) | > 100 µM (inactive) | > 100 µM (inactive) | > 100 µM (inactive) | > 100 µM (inactive) | > 100 µM (inactive) |
| CO/N=C/c1c(-c2ccc(Cl)cc2)c(/C=N/OC)n2c1sc1ccccc12 | > 100 µM (inactive) | > 100 µM (inactive) | > 100 | > 100 µM (inactive) | > 100 µM (inactive) |  | > 100 µM (inactive) | 45.5 µM (inactive) |  | > 100 µM (inactive) | > 100 µM (inactive) | > 100 µM (inactive) |  | > 100 µM (inactive) | > 100 µM (inactive) | > 100 µM (inactive) | > 100 µM (inactive) | > 100 µM (inactive) | > 100 µM (inactive) |
| COc1cc(/C=C2\C(=O)N(c3cccc(Cl)c3)C(c3ccccc3)S2(=O)=O)cc(OC)c1OC (configuration not stated) | 76.7 µM (inactive) | > 100 µM (inactive) | 54.3 | > 100 µM (inactive) | 22.2 µM (inactive) | 31.3 µM (inactive) | 30.5 µM (inactive) | 23.9 µM (inactive) | 89.7 µM (inactive) | 17.8 µM (inactive) | 86.7 µM (inactive) | 55.8 µM (inactive) | 43.3 µM (inactive) | 72.8 µM (inactive) |  | 32.7 µM (inactive) | 32.3 µM (inactive) |  | 69.2 µM (inactive) |
| CC(C)(C)[Si](C)(C)OCC1OC(n2ccc(N)nc2=O)C(O[Si](C)(C)C(C)(C)C)C1O[Si](C)(C)C(C)(C)C (configuration not stated) | 1.82 µM (inactive) | 9.59 µM (inactive) | 2.23 | 2.55 µM (inactive) | 1.71 µM (inactive) | 1.8 µM (inactive) |  | 1.47 µM (inactive) | 1.36 µM (inactive) | 1.83 µM (inactive) | 2.33 µM (inactive) | 2.56 µM (inactive) |  | 3.65 µM (inactive) | 3.79 µM (inactive) | 1.94 µM (inactive) | 1.71 µM (inactive) | 1.74 µM (inactive) |  |
| CC(=O)OCC1C(C(C)OC(C)=O)CCC2C1CCC1(C)C(OC(C)=O)CCC21 (configuration not stated) | 14.8 µM (inactive) | 83.9 µM (inactive) | 19.7 | > 10 µM (inactive) | 14.7 µM (inactive) | 17.1 µM (inactive) | 18.7 µM (inactive) | 16.6 µM (inactive) | 16.6 µM (inactive) | 20.6 µM (inactive) | 19.7 µM (inactive) | 23.9 µM (inactive) | 17.7 µM (inactive) | 18 µM (inactive) |  | 12.9 µM (inactive) | 61.9 µM (inactive) |  | 15.7 µM (inactive) |
| CC(C)(C)n1c(=O)[nH]c(=O)n1C(C)(C)C | > 100 µM (inactive) |  | > 100 | > 100 µM (inactive) | > 100 µM (inactive) | > 100 µM (inactive) |  | > 100 µM (inactive) | > 100 µM (inactive) |  | > 100 µM (inactive) |  | > 100 µM (inactive) | > 100 µM (inactive) | > 100 µM (inactive) | > 100 µM (inactive) | > 100 µM (inactive) | > 100 µM (inactive) | > 100 µM (inactive) |
| O=C(NNC(=S)NC1CCCCC1)c1csc(NC(=S)NC2CCCCC2)n1 | 3.54 µM (inactive) | 14.9 µM (inactive) | 0.463 |  | 4.9 µM (inactive) | 3.46 µM (inactive) | 10.8 µM (inactive) | 3.42 µM (inactive) | 66.7 µM (inactive) | 12 µM (inactive) | 2.25 µM (inactive) | 6.21 µM (inactive) | 4.58 µM (inactive) | 5.6 µM (inactive) | > 10 µM (inactive) | 4.45 µM (inactive) | 0.948 µM (active) | 10.9 µM (inactive) |  |
| CC(=O)O[C@H]1C[C@H](O[C@H]2[C@@H](O)C[C@H](O[C@H]3[C@@H](O)C[C@H](O[C@H]4CC[C@@]5(C)[C@H](CC[C@@H]6[C@@H]5C[C@@H](O)[C@]5(C)[C@@H](C7=CC(=O)OC7)CC[C@]65O)C4)O[C@@H]3C)O[C@@H]2C)O[C@H](C)[C@H]1O[C@@H]1O[C@H](CO)[C@@H](O)[C@H](O)[C@H]1O [LANATOSIDE C] | 0.0283 µM (active) | 0.0313 µM (active) | 0.0409 | 0.0252 µM (active) | 0.042 µM (active) | 0.147 µM (active) | 0.212 µM (active) | 0.018 µM (active) | 0.243 µM (active) | 0.0137 µM (active) | 0.0612 µM (active) | 0.0436 µM (active) | 0.0336 µM (active) |  | 0.167 µM (active) | 0.21 µM (active) | 0.0559 µM (active) |  | 0.303 µM (active) |
| O=C(/C=C/c1cccc(Br)c1)c1cccs1 | 20.1 µM (inactive) | > 10 µM (inactive) | 14.6 | 27.9 µM (inactive) |  | 25.1 µM (inactive) | 11.7 µM (inactive) | 15.3 µM (inactive) | 17.9 µM (inactive) |  | 17.7 µM (inactive) | 19.6 µM (inactive) | 18 µM (inactive) | 14.7 µM (inactive) | 14.6 µM (inactive) | 16.2 µM (inactive) | 13 µM (inactive) | 17.5 µM (inactive) | 18.1 µM (inactive) |
| O=C(Nc1cccc(F)c1)c1cc2ccc(O)cc2o/c1=N\c1ccccc1F | 3.34 µM (inactive) | 4.28 µM (inactive) | 2.88 | 1.57 µM (inactive) | 2.96 µM (inactive) | 5.32 µM (inactive) | 3.89 µM (inactive) | 2.29 µM (inactive) |  | 2.09 µM (inactive) | 2.51 µM (inactive) | 2.74 µM (inactive) | 7.43 µM (inactive) | 5.26 µM (inactive) |  | 4.38 µM (inactive) | 4 µM (inactive) | 8.85 µM (inactive) | 4.05 µM (inactive) |
